{"source": "patent US9012521B2", "about": "“Pyrroloquinoline quinone gel” (Mitsubishi Gas Chemical Company, Inc., priority 2010, dated 2015)", "key": {"[1]": {"experiment": "Specific surface area by the BET method with N2 adsorption", "assay_type": "physicochemical", "conditions": "pre-treatment drying at 150° C. for 20 hours", "protocol": "Using an Autosorb-6B manufactured by Quantachrome Instruments as the measurement apparatus, the specific surface area was determined by the BET method with N2 adsorption."}, "[2]": {"experiment": "Dissolution test in water, monitored by absorption at 450 nm", "assay_type": "physicochemical", "conditions": "1.3 mg PQQ powder in 2 mL water, room temperature; time to complete dissolution calculated from gradient of concentration change", "protocol": "In Examples and Comparative Examples, UV measurements were performed using a HITACHI U-2000 Spectrophotometer. […] To an acrylic cell for UV measurement, 1.3 mg of the PQQ powder was added, followed by the addition of 2 mL of water. […] The dissolution in water was monitored by absorption at 450 nm at room temperature. Absorbance measurement was performed for one hour, and the duration until the complete dissolution was calculated from the gradient of change in the concentration."}, "[3]": {"assay_type": "physicochemical", "source_text": "When mixing the salt of pyrroloquinoline quinone with the dispersion medium, the salt of pyrroloquinoline quinone may be added to the dispersion medium, the dispersion medium may be added to the salt of pyrroloquinoline quinone, or the salt of pyrroloquinoline quinone and the disperse medium may be added into separate vessels. Preferably, the salt of pyrroloquinoline quinone can be added to the dispersion medium. Preferably, the concentration of the salt of pyrroloquinoline quinone here is the same or higher than the solubility. The “solubility” as used herein refers to the extent to which a solute dissolves in a solvent, and can be expressed by the concentration of the solute in the saturated solution. The solubility of the salt of pyrroloquinoline quinone can be suitably determined by the temperature of the mixture."}}}
{"smiles": "O=C(O)c1cc(C(=O)O)c2c(n1)C(=O)C(=O)c1cc(C(=O)O)[nH]c1-2", "note": "[Comparative Example 1, Pyrroloquinoline quinone disodium]", "values": [{"measurement": "specific surface area", "setting": "[1]", "value": 2.9, "unit": "m^2/g"}, {"measurement": "Dissolution time", "setting": "[2]", "value": 10, "unit": "min"}, {"measurement": "solubility in water", "setting": "[3]", "value": "0.299 g per 100 g of water"}]}
